A short description of data set [1]: Cytotoxicity against human A549 cells incubated for 48 hrs by celltiter-glo luminescent cell viability assay. The format is toxicity, cell-based. For orientation: In ATP-based viability assays light output follows the ATP content of the culture.
Data set [2] concerns Influenza A virus. Put plainly: Antiviral activity against […] influenza A H5N1 pseudotyped virus infected in A549 cells assessed as inhibition of viral entry incubated for 48 hrs by measuring luciferase activity by Neolite reporter gene assay. The data set is classed as functional, organism-based. To be noted: H5N1, A549, 48 h. In general terms: In a reporter assay the amount or activity of a reporter protein is the signal.

Data set [3] deals with Vesicular stomatitis virus. Put plainly: Antiviral activity against VSV pseudotyped virus infected in A549 cells assessed as inhibition of viral entry incubated for 48 hrs by measuring luciferase activity by Neolite reporter gene assay. The data set is classed as functional, organism-based. Conditions: A549, 48 h.
Data set [4] is described as follows: Selectivity index, ratio of CC50 for human A549 cells to IC50 for VSV pseudotyped virus infected in A549 cells. The format is toxicity, cell-based. To be noted: read-out: Ratio CC50/IC50.
For data set [5], the system named is Influenza A virus. Kind of data set: Antiviral activity against group 2 influenza A virus H3N2 (A/Victoria/361/2011) infected in MDCK cells infected with supernatant of compound treated virus-producing human A549 cells assessed as reduction in viral titer at 1 to 10 uM treated for 48 hrs with virus-producing human A549 cells followed by MDCK cells infection for 48 hrs by crystal violet staining based plaque assay. The data set is classed as functional, organism-based. To be noted: dose 1-10 µM, time 96.0 hrs.

The test system of data set [6] is Influenza A virus. Put plainly: Antiviral activity against group 2 influenza A virus H3N2 (A/Hong Kong-11/1968) infected in MDCK cells infected with supernatant of compound treated virus-producing human A549 cells assessed as reduction in viral titer at 1 to 10 uM treated for 48 hrs with virus-producing human A549 cells followed by MDCK cells infection for 48 hrs by crystal violet staining based plaque assay. The data set is classed as functional, organism-based. Conditions: dose 1-10 µM, time 96.0 hrs.

Data set [7] in a line: Selectivity index, ratio of CC50 for human A549 cells to IC50 for group 2 influenza A H7N1 pseudotyped virus infected in A549 cells. The data set is classed as toxicity, cell-based. Conditions: read-out: Ratio CC50/IC50.
Data set [8] is described as follows: Selectivity index, ratio of CC50 for human A549 cells to IC50 for […] influenza A H5N1 pseudotyped virus infected in A549 cells. The data set is classed as toxicity, cell-based. To be noted: read-out: Ratio CC50/IC50.
Data set [9] concerns Influenza A virus. Kind of data set: Antiviral activity against group 2 influenza A H7N1 pseudotyped virus infected in A549 cells assessed as inhibition of viral entry incubated for 48 hrs by measuring luciferase activity by Neolite reporter gene assay. The data set is classed as functional, organism-based. Conditions: H7N1, A549, 48 h.
The test system of data set [10] is Influenza A virus. Kind of data set: Antiviral activity against group 2 influenza A virus H7N1 wild type. The data set is classed as functional, organism-based.

pIC50: −log10 of the molar value. Active and inactive are the calls of the source. The calls are words filed in the database; no cut-off is given here. Where only a bound is given, the exact number is not on record here.

Turning to `FC(F)(F)c1cc(Br)ccc1-c1nc2ncccn2c1NC1CCCCC1`, in [1], the half-maximal cytotoxic concentration (CC50) (as a rule, the concentration at which the toxic effect on the cells reaches its halfway point) at 48 h is 25 µM. In addition, the results for the negative-log IC50 (pIC50) (in the data set with Influenza A virus [2]; in [3]; in the data set with Influenza A virus [9]) were 4.70, 4.62 and 5.85, respectively. In addition, the selectivity ratio turned out to be 1 in [4], 18 in [7] and 1 in data set [8]. Moreover, the result with Influenza A virus [5] and in the data set on Influenza A virus [6] was Active.
In data set [1], `Cc1cc(Br)ccc1-c1nc2ncccn2c1Nc1ccccc1` gave a CC50 at 48 h of 40 µM. For the same molecule, the pIC50 – broadly, −log10 of the IC50, conventionally taken in molar units – in the data set with Influenza A virus [2] was under 4.00; in data set [3] it was 4.00; in the data set with Influenza A virus [9], 5.66. Besides, the results for the selectivity ratio in data set [4], in data set [7] and in data set [8] were 1, 18 and under 1, respectively.
Turning to `COc1ccc(-c2nc3ncccn3c2NC2CCCCC2)cc1`, the CC50 at 48 h in [1] is over 100 µM. In addition, the pIC50 is under 4.00 in the data set on Influenza A virus [2], 4.00 in data set [3], 7.72 in the data set with Influenza A virus [10] and 7.43 in the data set with Influenza A virus [9]. The outcome in the data set with Influenza A virus [5] and with Influenza A virus [6] was Active.
Molecule `Clc1ccc(-c2nc3ncccn3c2NC2CCCCC2)cc1` had a 50% cytotoxic concentration (CC50) at 48 h in data set [1] of over 100 µM. Also, the pIC50 in the data set on Influenza A virus [2] was under 4.00; in [3], 4.44; in the data set on Influenza A virus [9], 6.82. Further, the selectivity ratio in data set [4] was over 2; in data set [7], over 670; in data set [8] it was over 1. In addition, the result with Influenza A virus [5] and with Influenza A virus [6] was Active.
In data set [1], `CCCCOc1ccc(-c2nc3ncccn3c2NC2CCCCC2)cc1` returned a CC50 at 48 h of 52 µM. For the same molecule, the pIC50 in the data set with Influenza A virus [2] was 4.08; in [3], 4.44; in the data set on Influenza A virus [9], 6.17. For the same molecule, the results for the selectivity ratio in [4], in data set [7] and in data set [8] were 2, 78 and 1, respectively.
As for `COc1ccccc1-c1nc2ncccn2c1NC1CCCCC1`, in data set [1], the CC50 at 48 h is over 100 µM. The pIC50 with Influenza A virus [2] is under 4.00; in data set [3], under 4.00; in the data set with Influenza A virus [9] it was 5.64. Besides, the selectivity ratio in [4] is under 1; in data set [7], over 43; in [8], under 1.
Consider `COCCCCOc1ccc(-c2nc3ncccn3c2NC2CCCCC2)cc1`, for which the CC50 at 48 h in data set [1] worked out at 100 µM. In addition, the pIC50 in the data set on Influenza A virus [2] is 4.04; in [3] it was 4.40; with Influenza A virus [9], 6.60. In addition, the selectivity ratio in data set [4] came to 2; in data set [7] it was 400; in [8] it was 1. For the same molecule, the result in the data set on Influenza A virus [5] and in the data set on Influenza A virus [6] was Active.

(Values after ChEMBL document CHEMBL5108080 (J Med Chem, 2022).)
